These compounds were tested against Multidrug resistance-associated protein 1 (Homo sapiens, UniProt P33527) (assay: TP_TRANSPORTER: uptake in membrane vesicle from MRP1-expressing HeLa cells).
Format: functional, cell membranes

Sequence of Multidrug resistance-associated protein 1 (P33527 whole entry): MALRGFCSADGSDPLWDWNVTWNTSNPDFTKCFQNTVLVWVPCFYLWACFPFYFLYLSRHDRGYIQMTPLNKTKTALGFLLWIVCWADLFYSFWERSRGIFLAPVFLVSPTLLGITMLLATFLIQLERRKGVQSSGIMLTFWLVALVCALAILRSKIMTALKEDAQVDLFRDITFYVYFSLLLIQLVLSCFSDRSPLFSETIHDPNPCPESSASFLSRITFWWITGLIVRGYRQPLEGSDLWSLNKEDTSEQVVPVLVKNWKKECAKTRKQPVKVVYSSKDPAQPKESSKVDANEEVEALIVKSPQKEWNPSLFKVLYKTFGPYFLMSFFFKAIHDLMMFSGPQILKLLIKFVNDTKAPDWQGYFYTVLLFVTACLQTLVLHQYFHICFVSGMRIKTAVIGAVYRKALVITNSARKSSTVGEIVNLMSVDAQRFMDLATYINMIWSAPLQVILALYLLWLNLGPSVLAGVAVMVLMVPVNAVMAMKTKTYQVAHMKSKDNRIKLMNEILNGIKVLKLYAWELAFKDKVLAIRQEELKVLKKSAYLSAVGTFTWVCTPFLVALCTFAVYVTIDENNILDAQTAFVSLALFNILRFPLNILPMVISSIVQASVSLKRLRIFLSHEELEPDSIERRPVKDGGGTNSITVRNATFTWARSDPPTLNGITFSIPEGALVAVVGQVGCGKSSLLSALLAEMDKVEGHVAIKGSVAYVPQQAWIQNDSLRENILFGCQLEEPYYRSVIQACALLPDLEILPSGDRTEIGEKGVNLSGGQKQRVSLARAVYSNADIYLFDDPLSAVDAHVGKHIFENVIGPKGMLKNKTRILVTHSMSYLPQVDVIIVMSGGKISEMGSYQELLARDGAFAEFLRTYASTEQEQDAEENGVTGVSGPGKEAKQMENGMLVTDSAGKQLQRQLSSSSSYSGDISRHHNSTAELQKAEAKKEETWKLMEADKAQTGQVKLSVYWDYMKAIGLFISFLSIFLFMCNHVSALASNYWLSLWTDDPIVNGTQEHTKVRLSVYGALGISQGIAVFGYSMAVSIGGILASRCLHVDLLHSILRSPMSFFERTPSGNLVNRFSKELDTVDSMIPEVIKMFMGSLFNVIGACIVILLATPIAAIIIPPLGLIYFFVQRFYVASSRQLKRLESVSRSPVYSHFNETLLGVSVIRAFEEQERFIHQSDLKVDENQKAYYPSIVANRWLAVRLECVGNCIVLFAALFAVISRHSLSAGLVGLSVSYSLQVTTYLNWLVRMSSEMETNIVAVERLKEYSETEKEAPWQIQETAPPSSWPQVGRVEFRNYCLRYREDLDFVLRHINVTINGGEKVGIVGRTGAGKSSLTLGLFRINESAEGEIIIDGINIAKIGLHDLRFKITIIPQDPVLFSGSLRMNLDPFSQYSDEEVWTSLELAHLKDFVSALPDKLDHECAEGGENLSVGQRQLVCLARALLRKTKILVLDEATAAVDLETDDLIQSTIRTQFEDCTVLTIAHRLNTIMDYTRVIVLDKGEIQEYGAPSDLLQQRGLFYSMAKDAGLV

Activity, substrate [+]:
COc1cc([C@@H]2c3cc4c(cc3[C@@H](O[C@@H]3O[C@@H]5CO[C@@H](C)O[C@H]5[C@H](O)[C@H]3O)[C@H]3COC(=O)[C@H]23)OCO4)cc(OC)c1O[C@@H]1O[C@H](C(=O)O)[C@@H](O)[C@H](O)[C@H]1O [ETOPOSIDE GLUCURONIDE], CCCCC/C=C\C\C=C/C=C/C=C/[C@@H](SC[C@H](NC(C)=O)C(=O)O)[C@@H](O)CCCC(=O)O, CCCCC/C=C\C\C=C/C=C/C=C/[C@@H](SC[C@H](N)C(=O)NCC(=O)O)[C@@H](O)CCCC(=O)O [LEUKOTRIENE D4], C[C@H](CCC(=O)O)[C@H]1CC[C@H]2[C@@H]3C[C@H](O[C@@H]4O[C@H](C(=O)O)[C@@H](O)[C@H](O)[C@H]4O)[C@@H]4C[C@H](O)CC[C@]4(C)[C@H]3CC[C@]12C [6alpha-Glucuronosylhyodeoxycholate], CCCCC/C=C\C\C=C/C=C/C=C/[C@@H](SC[C@H](N)C(=O)O)[C@@H](O)CCCC(=O)O [LEUKOTRIEN E4]

Source: ChEMBL document CHEMBL2074072, “Transport of glutathione, glucuronate, and sulfate conjugates by the MRP gene-encoded conjugate export pump” (Cancer Res, 1996)
